Laboratory results: the CheMixHub ionic liquid set

Test: xn = mol fraction of the nth substance listed

CC[n+]1ccn(C)c1.[Cl-] + CC#N
Settings | viscosity [mPa·s]
373 K, 100 kPa, x2 = 0.284 | 12

CC[n+]1ccn(C)c1C.F[B-](F)(F)F + CC#N
viscosity [mPa·s], 101.3 kPa
Settings | 293.15 K | 298.15 K | 303.15 K | 308.15 K | 313.15 K | 318.15 K | 323.15 K | 328.15 K | 333.15 K
x1 = 0.02106 | 0.518 | 0.505 | 0.476 | 0.456 | 0.442 | 0.428 | 0.414 | 0.401 | 0.389
x1 = 0.04617 | 0.648 | 0.618 | 0.59 | 0.566 | 0.543 | 0.52 | 0.501 | 0.483 | 0.465
x1 = 0.07663 | 0.846 | 0.808 | 0.768 | 0.732 | 0.698 | 0.667 | 0.636 | 0.608 | 0.583
x1 = 0.1143 | 1.116 | 1.051 | 0.995 | 0.943 | 0.893 | 0.85 | 0.809 | 0.769 | 0.733
x1 = 0.1622 | 1.68 | 1.58 | 1.48 | 1.39 | 1.31 | 1.24 | 1.17 | 1.105 | 1.049
x1 = 0.2251 | 2.63 | 2.44 | 2.26 | 2.11 | 1.97 | 1.84 | 1.73 | 1.62 | 1.53
x1 = 0.3112 | 4.25 | 3.81 | 3.48 | 3.2 | 2.94 | 2.71 | 2.51 | 2.33 | 2.16
x1 = 0.4365 | 8.05 | 7.11 | 6.37 | 5.75 | 5.18 | 4.7 | 4.27 | 3.91 | 3.57

CS(C)=O + CC(=O)[O-].CC[NH2+]CC
Settings | viscosity [mPa·s]
298.15 K, 101 kPa, x2 = 0 | 2.01

CS(C)=O + CC(=O)[O-].CC[NH+](CC)CC
101 kPa, x1 = 1
Settings | viscosity [mPa·s]
298.15 K | 1.99
303.15 K | 1.79
308.15 K | 1.65

CC[n+]1ccn(C)c1C.F[B-](F)(F)F + CC(C)=O
viscosity [mPa·s], 101.3 kPa
Settings | x1 = 0.02954 | x1 = 0.06403 | x1 = 0.1051 | x1 = 0.1544 | x1 = 0.215 | x1 = 0.2913 | x1 = 0.3887 | x1 = 0.5201
293.15 K | 0.42 | 0.615 | 0.797 | 1.19 | 1.82 | 3.37 | 7.01 | 15.8
298.15 K | 0.402 | 0.59 | 0.767 | 1.119 | 1.7 | 3.09 | 6.27 | 13.2
303.15 K | 0.384 | 0.563 | 0.726 | 1.048 | 1.59 | 2.81 | 5.66 | 11.59
308.15 K | 0.368 | 0.54 | 0.687 | 0.986 | 1.48 | 2.57 | 5.13 | 10.2
313.15 K | 0.354 | 0.516 | 0.652 | 0.929 | 1.38 | 2.36 | 4.67 | 9.03
318.15 K | 0.34 | 0.496 | 0.62 | 0.874 | 1.29 | 2.16 | 4.26 | 8.14
323.15 K | 0.327 | 0.478 | 0.588 | 0.825 | 1.22 | 1.96 | 3.91 | 7.34

CCCC[N+](CCCC)(CCCC)CCCC.[Cl-] + CC(C)C[C@H](N)C(=O)O
100 kPa
Settings | electrical conductivity, 313.15 K [S/m] | electrical conductivity, 323.15 K [S/m] | electrical conductivity, 333.15 K [S/m] | electrical conductivity, 343.15 K [S/m] | electrical conductivity, 353.15 K [S/m] | viscosity, 313.15 K [mPa·s] | viscosity, 323.15 K [mPa·s] | viscosity, 333.15 K [mPa·s] | viscosity, 343.15 K [mPa·s] | viscosity, 353.15 K [mPa·s]
x1 = 0.8889 | 0.0188 | 0.0377 | 0.0631 | 0.0885 | 0.12 | 1070 | 444 | 219 | 123 | 76
x1 = 0.9 | 0.0149 | 0.027 | 0.0441 | 0.068 | 0.0891 | 940 | 517 | 259 | 146 | 88.1
x1 = 0.9091 | 0.0194 | 0.0302 | 0.054 | 0.0761 | 0.0971 | 890 | 410 | 197 | 114 | 99

CCCCCCCCCCCC[N+](C)(C)Cc1ccccc1.[Cl-] + CC(C)C[C@H](N)C(=O)O + O
electrical conductivity [S/m], 101 kPa
Settings | 293.15 K | 298.15 K | 303.15 K | 308.15 K | 313.15 K
x2 = 0.001798, x1 = 0.0001441 | 0.0541 | 0.0606 | 0.0671 | 0.074 | 0.0811
x2 = 0.001798, x1 = 0.0001691 | 0.061 | 0.068 | 0.0755 | 0.0833 | 0.0918
x2 = 0.001798, x1 = 0.0001949 | 0.0661 | 0.0738 | 0.0821 | 0.0911 | 0.101
x2 = 0.001798, x1 = 0.0002208 | 0.0704 | 0.0788 | 0.0879 | 0.0977 | 0.108
x2 = 0.001798, x1 = 0.0002443 | 0.0741 | 0.0832 | 0.0928 | 0.103 | 0.116
x2 = 0.001798, x1 = 0.0002664 | 0.0776 | 0.0872 | 0.0975 | 0.109 | 0.122
x2 = 0.001798, x1 = 0.0002864 | 0.0807 | 0.0908 | 0.102 | 0.114 | 0.127
x2 = 0.001798, x1 = 0.0003052 | 0.0838 | 0.0941 | 0.106 | 0.118 | 0.132
x2 = 0.001798, x1 = 0.0003239 | 0.0872 | 0.0976 | 0.11 | 0.123 | 0.137
x2 = 0.001799, x1 = 5.649e-05 | 0.0231 | 0.0258 | 0.0287 | 0.0317 | 0.0346
x2 = 0.001799, x1 = 7.89e-05 | 0.0314 | 0.035 | 0.0389 | 0.0428 | 0.0469
x2 = 0.001799, x1 = 9.986e-05 | 0.0387 | 0.0435 | 0.0482 | 0.0532 | 0.0582
x2 = 0.001799, x1 = 0.0001206 | 0.0462 | 0.0518 | 0.0574 | 0.0633 | 0.0693
x2 = 0.008927, x1 = 0.0002331 | 0.0722 | 0.0806 | 0.0896 | 0.0994 | 0.11
x2 = 0.008927, x1 = 0.0002565 | 0.0758 | 0.0847 | 0.0944 | 0.105 | 0.117
x2 = 0.008927, x1 = 0.0002782 | 0.079 | 0.0883 | 0.0986 | 0.11 | 0.122
x2 = 0.008927, x1 = 0.0002981 | 0.0818 | 0.0918 | 0.102 | 0.115 | 0.127
x2 = 0.008927, x1 = 0.0003168 | 0.0845 | 0.0949 | 0.106 | 0.119 | 0.132
x2 = 0.008927, x1 = 0.0003371 | 0.0874 | 0.0983 | 0.11 | 0.123 | 0.137
x2 = 0.008928, x1 = 0.0001252 | 0.0463 | 0.0518 | 0.0574 | 0.0633 | 0.0692
x2 = 0.008928, x1 = 0.0001513 | 0.0552 | 0.0616 | 0.0682 | 0.075 | 0.082
x2 = 0.008928, x1 = 0.000179 | 0.0627 | 0.0698 | 0.0773 | 0.0853 | 0.0937
x2 = 0.008928, x1 = 0.000207 | 0.068 | 0.0757 | 0.084 | 0.093 | 0.103
x2 = 0.008929, x1 = 5.804e-05 | 0.0225 | 0.0252 | 0.028 | 0.031 | 0.0339
x2 = 0.008929, x1 = 7.973e-05 | 0.0302 | 0.0339 | 0.0376 | 0.0414 | 0.0454
x2 = 0.008929, x1 = 0.0001014 | 0.038 | 0.0425 | 0.0472 | 0.0519 | 0.0568
